tested on: immunoglobulin light chain protein WIL-FL T46L; experiment: Differential scanning fluorimetry (thermal shift) assay; assay type: binding; details: not given

Row | SMILES | DSF
1 | Cc1cc(N2CC[C@](C)(c3ccccc3)C2)cn2nc(C34CC(CO)(CO3)C4N3CC4(CC4)NC3=O)nc12 (stereo partly drawn) [Compound 576, 6-(4-(hydroxymethyl)-1-(8-methyl-6-((R)-3-methyl-3-phenylpyrrolidin-1-yl)-[1,2,4]triazolo[1,5-a]pyridin-2-yl)-2-oxabicyclo[2.1.1]hexan-5-yl)-4,6-diazaspiro[2.4]heptan-5-one] | ***** (key: 0-0.5° C.=*; >0.5-1 °C =**; >1-1.5° C.=***; >1.5-2.5° C.=****; >2.5° C.=*****)

same assay, conditions: Table B; temperature shift [Tm]compound-[Tm]vehicle; recombinant WIL-FL T46L

Row | SMILES | DSF
2 | Cc1cc(N2CC[C@](C)(c3ccccc3)C2)cn2nc(C34CC(CO3)C4c3nc(NS(=O)(=O)[C@H]4CC[C@H](C(=O)O)CC4)n[nH]3)nc12 (some centres unmarked) [Compound 562] | ***** (>2.5° C.=*****)
3 | CCS(=O)(=O)Nc1n[nH]c(C2C3COC2(c2nc4c(C)cc(N5CC[C@@](C)(n6ccc(C(F)(F)F)n6)C5)cn4n2)C3)n1 (some centres unmarked) [Compound 563] | **** (>1.5-2.5° C.=****)
4 | Cc1cc(N2CC[C@](C)(c3ccccc3)C2)cn2nc(C34CC(CO3)C4c3nc(NS(=O)(=O)CC(C)(C)C(=O)O)n[nH]3)nc12 (some centres unmarked) [Compound 564] | ***** (>2.5° C.=*****)
5 | Cc1cc(N2CC[C@](C)(c3ccccc3)C2)cn2nc(C34CC(CO3)C4c3nc(NS(=O)(=O)C4CC(C)(C(=O)O)C4)n[nH]3)nc12 (some centres unmarked) [Compound 565] | ***** (>2.5° C.=*****)
6 | Cc1cc(N2CC[C@](C)(c3ccccc3)C2)cn2nc(C34CC(CO3)C4c3nc(N)nn3S(=O)(=O)C3CC(C)(C(=O)O)C3)nc12 (some centres unmarked) [Compound 566] | ***** (>2.5° C.=*****)
7 | COC(C)(CS(=O)(=O)Nc1n[nH]c(C2C3COC2(c2nc4c(C)cc(N5CC[C@](C)(c6ccccc6)C5)cn4n2)C3)n1)C(=O)O (some centres unmarked) [Compound 567] | **** (>1.5-2.5° C.=****)
8 | Cc1cc(N2CC[C@](C)(c3ccccc3)C2)cn2nc(C34CC(CO3)C4c3nc(NS(=O)(=O)C4COC(C(=O)O)C4)n[nH]3)nc12 (some centres unmarked) [Compound 568] | ***** (>2.5° C.=*****)
9 | Cc1cc(N2CC[C@](C)(c3ccccc3)C2)cn2nc(C34CC(CO)(CO3)C4C(=O)NCC(C)(C)C(=O)O)nc12 (stereo partly drawn) [Compound 569, 3-[[4-(hydroxymethyl)-1-[8-methyl-6-[(3R)-3-methyl-3-phenyl-pyrrolidin-1-yl]-[1,2,4]triazolo[1,5-a]pyridin-2-yl]-2-oxabicyclo[2.1.1]hexane-5-carbonyl]amino]-2,2-dimethyl-propanoic acid] | **** (>1.5-2.5° C.=****)
10 | Cc1cc(N2CC[C@](C)(c3ccccc3)C2)cn2nc(C34CC(CO)(CO3)C4c3nnn(C)n3)nc12 (some centres unmarked) [Compound 570, (5-(2-methyl-2 h-tetrazol-5-yl)-1-(8-methyl-6-((r)-3-methyl-3-phenylpyrrolidin-1-yl)-[1,2,4]triazolo[1,5-a]pyridin-2-yl)-2-oxabicyclo[2.1.1]hexan-4-yl)methanol] | ***** (>2.5° C.=*****)
11 | Cc1cc(N2CC[C@](C)(c3ccccc3)C2)cn2nc(C34CC(CO)(CO3)C4c3nnnn3C)nc12 (some centres unmarked) [Compound 571] | ***** (>2.5° C.=*****)
12 | CCC(=O)Nc1n[nH]c(C2C3(CO)COC2(c2nc4c(C)cc(N5CC[C@](C)(c6ccccc6)C5)cn4n2)C3)n1 (stereo partly drawn) [Compound 572, N-[5-[4-(hydroxymethyl)-1-[8-methyl-6-[(3R)-3-methyl-3-phenyl-pyrrolidin-1-yl]-[1,2,4]triazolo[1,5-a]pyridin-2-yl]-2-oxabicyclo[2.1.1]hexan-5-yl]-1H-1,2,4-triazol-3-yl]propanamide] | ***** (>2.5° C.=*****)
13 | CCS(=O)(=O)Nc1nc(C2C3(CO)COC2(c2nc4c(C)cc(N5CC[C@](C)(c6ccccc6)C5)cn4n2)C3)n[nH]1 (stereo partly drawn) [Compound 573, N-[3-[4-(hydroxymethyl)-1-[8-methyl-6-[(3R)-3-methyl-3-phenyl-pyrrolidin-1-yl]-[1,2,4]triazolo[1,5-a]pyridin-2-yl]-2-oxabicyclo[2.1.1]hexan-5-yl]-1H-1,2,4-triazol-5-yl]ethanesulfonamide] | ***** (>2.5° C.=*****)
14 | Cc1cc(N2CC[C@](C)(c3ccccc3)C2)cn2nc(C34CC(CO)(CO3)C4c3nc(NS(=O)(=O)CC(C)(C)C(=O)O)n[nH]3)nc12 (some centres unmarked) [Compound 574] | ***** (>2.5° C.=*****)
15 | Cc1cc(N2CC[C@](C)(c3ccccc3)C2)cn2nc(C34CC(CO)(CO3)C4C(=O)O)nc12 (some centres unmarked) [Compound 575, 4-(hydroxymethyl)-1-(8-methyl-6-((r)-3-methyl-3-phenylpyrrolidin-1-yl)-[1,2,4]triazolo[1,5-a]pyridin-2-yl)-2-oxabicyclo[2.1.1]hexane-5-carboxylic acid] | ***** (>2.5° C.=*****)
16 | Cc1cc(N2CC[C@](C)(c3ccccc3)C2)cn2nc(C34CC(CO)(CO3)C4N3CC4(COC4)NC3=O)nc12 (some centres unmarked) [Compound 577] | ***** (>2.5° C.=*****)
17 | Cc1n[nH]c(C2C3(CO)COC2(c2nc4c(C)cc(N5CC6(CCC6c6ccccc6)C5)cn4n2)C3)n1 (centres unmarked) [Compound 578, [1-[8-methyl-6-(7-phenyl-2-azaspiro[3.3]heptan-2-yl)-[1,2,4]triazolo[1,5-a]pyridin-2-yl]-5-(3-methyl-1H1,2,4-triazol-5-yl)-2-oxabicyclo[2.1.1]hexan-4-yl]methanol] | ***** (>2.5° C.=*****)
18 | CCC1(c2ccccc2)CN(c2cc(C)c3nc(C45CC(CO)(CO4)C5c4nc(C)n[nH]4)nn3c2)C1 (centres unmarked) [Compound 579] | **** (>1.5-2.5° C.=****)

Row | SMILES | DSF
19 | Cc1nc([C@H]2[C@@]3(CO)CO[C@]2(c2nc4c(C)cc(N5CC[C@](C)(c6ccccc6)C5)cn4n2)C3)n[nH]1 [Compound 580, ((1R,4S,5R)-5-(5-methyl-1H-1,2,4-triazol-3-yl)-1-(8-methyl-6-((R)-3-methyl-3-phenylpyrrolidin-1-yl)-[1,2,4]triazolo[1,5-a]pyridin-2-yl)-2-oxabicyclo[2.1.1]hexan-4-yl)methanol] | ***** (>2.5° C.=*****)
20 | Cc1nc([C@H]2[C@]3(CO)CO[C@@]2(c2nc4c(C)cc(N5CC[C@](C)(c6ccccc6)C5)cn4n2)C3)n[nH]1 [Compound 581, ((1S,4R,5R)-5-(5-methyl-1H-1,2,4-triazol-3-yl)-1-(8-methyl-6-((R)-3-methyl-3-phenylpyrrolidin-1-yl)-[1,2,4]triazolo[1,5-a]pyridin-2-yl)-2-oxabicyclo[2.1.1]hexan-4-yl)methanol] | ***** (>2.5° C.=*****)
21 | Cc1cc(N2CC[C@](C)(c3ccccc3)C2)cn2nc(C34CC(CN)(CO3)C4CO)nc12 (stereo partly drawn) [Compound 582, (4-(aminomethyl)-1-(8-methyl-6-((R)-3-methyl-3-phenylpyrrolidin-1-yl)-[1,2,4]triazolo[1,5-a]pyridin-2-yl)-2-oxabicyclo[2.1.1]hexan-5-yl)methanol] | ***** (>2.5° C.=*****)
22 | CCS(=O)(=O)NCC12COC(c3nc4c(C)cc(N5CC[C@](C)(c6ccccc6)C5)cn4n3)(C1)C2CO (stereo partly drawn) [Compound 583, N-((5-(hydroxymethyl)-1-(8-methyl-6-((R)-3-methyl-3-phenylpyrrolidin-1-yl)-[1,2,4]triazolo[1,5-a]pyridin-2-yl)-2-oxabicyclo[2.1.1]hexan-4-yl)methyl)ethanesulfonamide] | ***** (>2.5° C.=*****)
23 | Cc1nc(C2C3(CNS(=O)(=O)CC(C)(C)C(=O)O)COC2(c2nc4c(C)cc(N5CC[C@](C)(c6ccccc6)C5)cn4n2)C3)n[nH]1 (stereo partly drawn) [Compound 584, 2,2-dimethyl-3-(N-((5-(5-methyl-11H-1,2,4-triazol-3-yl)-1-(8-methyl-6-((R)-3-methyl-3-phenylpyrrolidin-1-yl)-[1,2,4]triazolo[1,5-a]pyridin-2-yl)-2-oxabicyclo[2.1.1]hexan-4-yl)methyl)sulfamoyl)propanoic acid] | ***** (>2.5° C.=*****)
24 | COC(C)(CS(=O)(=O)NCC12COC(c3nc4c(C)cc(N5CC[C@](C)(c6ccccc6)C5)cn4n3)(C1)C2c1n[nH]c(C)n1)C(=O)O (some centres unmarked) [Compound 585] | ***** (>2.5° C.=*****)
25 | Cc1nc(C2C3(CNC(=O)CC(C)(C)C(=O)O)COC2(c2nc4c(C)cc(N5CC[C@](C)(c6ccccc6)C5)cn4n2)C3)n[nH]1 (some centres unmarked) [Compound 586] | ***** (>2.5° C.=*****)
26 | CCS(=O)(=O)NCC12COC(c3nc4c(C)cc(N5CC[C@](C)(c6ccccc6)C5)cn4n3)(C1)C2c1n[nH]c(C)n1 (some centres unmarked) [Compound 587] | ***** (>2.5° C.=*****)
27 | CCC(=O)NCC12COC(c3nc4c(C)cc(N5CC[C@](C)(c6ccccc6)C5)cn4n3)(C1)C2c1n[nH]c(C)n1 (some centres unmarked) [Compound 588] | ***** (>2.5° C.=*****)
28 | COC(C)(CC(=O)NCC12COC(c3nc4c(C)cc(N5CC[C@](C)(c6ccccc6)C5)cn4n3)(C1)C2c1nc(C)n[nH]1)C(=O)O (some centres unmarked) [Compound 589] | ***** (>2.5° C.=*****)
29 | Cc1n[nH]c(C2C3(CNC(=O)C4CC[C@H](C(=O)O)O4)COC2(c2nc4c(C)cc(N5CC[C@](C)(c6ccccc6)C5)cn4n2)C3)n1 (some centres unmarked) [Compound 590] | ***** (>2.5° C.=*****)
30 | Cc1n[nH]c(C23CC(NC(=O)c4nc5c(C)cc(N6CC[C@](C)(c7ccccc7)C6)cn5n4)(CO2)C3)n1 [Compound 591, (R)-8-methyl-N-(1-(3-methyl-1H-1,2,4-triazol-5-yl)-2-oxabicyclo[2.1.1]hexan-4-yl)-6-(3-methyl-3-phenylpyrrolidin-1-yl)-[1,2,4]triazolo[1,5-a]pyridine-2-carboxamide] | ***** (>2.5° C.=*****)
31 | Cc1cc(N2CC[C@](C)(c3ccccc3)C2)cn2nc(C(=O)N3CC4CC(C(=O)O)CC4C3)nc12 (some centres unmarked) [Compound 592] | ***** (>2.5° C.=*****)
32 | Cc1cc(N2CC[C@@](C)(n3ccc(C(F)(F)F)n3)C2)cn2nc(C(=O)NC3COC4(COC4)C3)nc12 (some centres unmarked) [Compound 593] | ***** (>2.5° C.=*****)
33 | Cc1cc(N2CC[C@](C)(c3ccccc3)C2)cn2nc(C(=O)N3CCC4(CCC(C(=O)O)O4)C3)nc12 (some centres unmarked) [Compound 594] | ***** (>2.5° C.=*****)
34 | Cc1cc(N2CC[C@](C)(c3ccccc3)C2)cn2nc(C(=O)N3C[C@@H]4[C@@H](C(=O)O)CO[C@@H]4C3)nc12 [Compound 595] | ***** (>2.5° C.=*****)
35 | Cc1cc(N2CC[C@](C)(c3ccccc3)C2)cn2nc(C(=O)NC3CC4(C3)CN(C(=O)C3CCC(C(=O)O)O3)C4)nc12 (stereo partly drawn) [Compound 596, 5-[6-[[8-methyl-6-[(3R)-3-methyl-3-phenyl-pyrrolidin-1-yl]-[1,2,4]triazolo[1,5-a]pyridine-2-carbonyl]amino]-2-azaspiro[3.3]heptane-2-carbonyl]tetrahydrofuran-2-carboxylic acid] | ***** (>2.5° C.=*****)
